What was measured:
Assay type in all cases: in vivo
[1] = tested on: wild poinsettia (Euphorbia heterophylla); assay: Test E greenhouse herbicide test, pre- and postemergence
In short: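 Herbicidal effect was judged by eye relative to untreated plants 14 to 21 d after spraying, using 0 for no effect and 100 for complete control. Preemergence sprays went onto freshly seeded silt loam; postemergence sprays onto 2–18 cm seedlings.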

[2] = tested on: waterhemp_RES2 (ALS & HPPD resistant common waterhemp, Amaranthus rudis); assay: Test E greenhouse herbicide test, postemergence
Method: (§1) At the same time, plants from these crop and weed species and also waterhemp_RES1, (ALS & Triazine resistant common waterhemp, Amaranthus rudis), and waterhemp_RES2, (ALS & HPPD resistant common waterhemp, Amaranthus rudis) were planted in pots containing Redi-Earth® planting medium (Scotts Company, 14111 Scottslawn Road, Marysville, Ohio 43041) comprising spaghnum peat moss, vermiculite, wetting agent and starter nutrients were treated with postemergence applications of test chemicals formulated in the same manner. Plants ranged in height from 2 to 18 cm for postemergence treatments (1- to 4-leaf stage). Treated plants and controls were maintained in a greenhouse for 14 to 21 d, after which time all species were compared to controls and visually evaluated. Plant response ratings, summarized in Table E, are based on a scale of 0 to 100 where 0 is no effect and 100 is complete control. A dash (-) response means no test result.

[3] = tested on: waterhemp_RES1 (ALS & Triazine resistant common waterhemp, Amaranthus rudis); assay: Test E greenhouse herbicide test, postemergence
Method: as §1

[4] = tested on: geranium, cutleaf (cutleaf geranium, Geranium dissectum); assay: Test D controlled growth environment herbicide test, pre- and postemergence
In short: (§2)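 Rating is visual, 0–100 scale (100 = complete control), made against untreated plants 14–21 d after treatment in controlled growth conditions. Postemergence sprays went onto 1- to 4-leaf plants in peat medium; preemergence sprays onto silt loam after sowing; formulation included a surfactant.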

[5] = tested on: Canada thistle (Cirsium arvense); assay: as above; settings: for Canada Thistle plant response rating / Plant response rating (scale of 0 to 100), Canada Thistle: 31 g ai/ha
In short: as §2

[6] = 62 g ai/ha, Postemergence, scale 0 to 100 (0 no effect, 100 complete control)
[7] = 125 g ai/ha, Postemergence, scale 0 to 100 (0 no effect, 100 complete control)
[8] = 250 g ai/ha, Postemergence, scale 0 to 100 (0 no effect, 100 complete control)
[9] = Postemergence, 31 g ai/ha, visual, scale 0 no effect to 100 complete control
[10] = 31 g ai/ha, visual, scale 0 no effect to 100 complete control
[11] = 62 g ai/ha, scale 0 to 100 (0 no effect, 100 complete control)
[12] = 125 g ai/ha, scale 0 to 100 (0 no effect, 100 complete control)
[13] = 250 g ai/ha, scale 0 to 100 (0 no effect, 100 complete control)
[14] = 62 g ai/ha, Preemergence, scale 0 to 100 (0 no effect, 100 complete control)
[15] = 125 g ai/ha, Preemergence, scale 0 to 100 (0 no effect, 100 complete control)
[16] = Preemergence, 31 g ai/ha, scale 0 to 100, 0 no effect, 100 complete control
[17] = Preemergence, 250 g ai/ha, visual, scale 0 no effect to 100 complete control
[18] = Postemergence, 16 g ai/ha, visual, scale 0 no effect to 100 complete control
[19] = Postemergence, 31 g ai/ha, scale 0 to 100 (0 no effect, 100 complete control)
[20] = Postemergence, 125 g ai/ha, visual rating on scale 0 (no effect) to 100 (complete control), 14 to 21 d
[21] = Postemergence, 250 g ai/ha, scale 0 to 100 (0 no effect, 100 complete control)
[22] = Preemergence, 125 g ai/ha, scale 0 to 100 (0 no effect, 100 complete control)
[23] = Preemergence, 250 g ai/ha, scale 0 to 100 (0 no effect, 100 complete control)
[24] = postemergence, 62 g ai/ha, scale 0 to 100, 0 no effect, 100 complete control
[25] = Postemergence, scale 0 to 100 (0 no effect, 100 complete control)
[26] = Preemergence, 62 g ai/ha, scale 0 to 100 (0 no effect, 100 complete control)
[27] = 16 g ai/ha, visual, scale 0 no effect to 100 complete control

Structure (SMILES) | Plant response rating, Poinsettia, Wild [1, 6] | Plant response rating, Poinsettia, Wild [1, 7] | Plant response rating, Poinsettia, Wild [1, 8] | Plant response rating, Poinsettia, Wild [1, 9] | Plant response rating, Waterhemp_RES2 [2, 10] | Plant response rating, Waterhemp_RES2 [2, 12] | Plant response rating, Waterhemp_RES2 [2, 13] | Plant response rating, Waterhemp_RES1 [3, 10] | Plant response rating, Waterhemp_RES1 [3, 12] | Plant response rating, Waterhemp_RES1 [3, 13] | Plant response rating, Poinsettia, Wild [1, 15] | Plant response rating, Poinsettia, Wild [1, 16] | further results
CC(=O)Oc1c(C)nn(C)c(=O)c1-c1c(C)sc2ccc(C)cc12 [Compound 25] | 30 | 35 | 60 | 35 | 70 | 70 | 75 | 75 | 85 | 95 | – | – | Plant response rating, Waterhemp_RES2 [2, 11]: 60; Plant response rating, Waterhemp_RES1 [3, 11]: 80
CCC(=O)Oc1c(C)nn(C)c(=O)c1-c1c(C)sc2c(C)cc(C)cc12 [Compound 28] | – | 50 | 40 | – | – | 50 | 50 | – | 60 | 80 | – | – | –
CCC(=O)Oc1c(C)nn(C)c(=O)c1-c1c(C)sc2ccc(C)cc12 [Compound 42] | – | – | – | – | 60 | 70 | 80 | 75 | 70 | 98 | – | – | Plant response rating, Waterhemp_RES2 [2, 11]: 65; Plant response rating, Waterhemp_RES1 [3, 11]: 75
COC(=O)Oc1c(C)nn(C)c(=O)c1-c1c(C)sc2c(C)cc(C)cc12 [Compound 81] | 40 | 40 | 50 | 30 | 10 | 50 | 50 | 50 | 60 | 65 | 30 | 0 | Plant response rating, Poinsettia, Wild [1, 14]: 5; Plant response rating, Poinsettia, Wild [1, 17]: 60
CCOC(=O)Oc1c(C)nn(C)c(=O)c1-c1c(C)sc2ccc(C)cc12 [Compound 82] | 30 | 40 | 50 | 40 | 50 | 60 | 60 | 60 | 85 | 95 | 0 | 0 | Plant response rating, Poinsettia, Wild [1, 14]: 0; Plant response rating, Poinsettia, Wild [1, 17]: 20
CCOC(=O)Oc1c(C)nn(C)c(=O)c1-c1c(C)sc2c(C)cc(C)cc12 [Compound 83] | – | – | – | – | 30 | 40 | 50 | 70 | 80 | 70 | – | – | –
Cc1cc(C)c2sc(C)c(-c3c(OC(=O)OCCCl)c(C)nn(C)c3=O)c2c1 [Compound 85] | – | – | – | – | 40 | 40 | 50 | 80 | 75 | 80 | – | – | –
C#CCOC(=O)Oc1c(C)nn(C)c(=O)c1-c1c(C)sc2ccc(C)cc12 [Compound 87] | – | – | – | – | – | – | – | – | – | – | 15 | 0 | Plant response rating, Poinsettia, Wild [1, 14]: 15; Plant response rating, Poinsettia, Wild [1, 17]: 20
CC(=O)Oc1c(C)nn(C)c(=O)c1-c1ccc(F)c2ccccc12 [Compound 90] | 50 | 60 | – | 35 | 50 | 70 | – | 50 | 80 | – | – | – | Plant response rating, Poinsettia, Wild [1, 18]: 20; Geranium, Cutleaf plant response rating [4, 19]: 45; Plant response rating, Geranium, Cutleaf [4, 20]: 75; Plant response rating, Geranium, Cutleaf [4, 21]: 95; Plant response rating (scale of 0 to 100), Geranium, Cutleaf ([4]; Preemergence, 31 g ai/ha): 0; Plant response rating (scale of 0 to 100), Geranium, Cutleaf ([4]; Preemergence, 62 g ai/ha): 60; Plant response rating, Geranium, Cutleaf [4, 22]: 65; Plant response rating, Geranium, Cutleaf [4, 23]: 90; Plant response rating, Geranium, Cutleaf [4, 24]: 65; Canada Thistle plant response rating [5, 25]: 98; Plant response rating, Canada Thistle [5, 20]: 100; Plant response rating, Canada Thistle [5, 21]: 98; Plant response rating (scale of 0 to 100), Canada Thistle ([5]; Preemergence): 50; Plant response rating, Canada Thistle [5, 26]: 95; Plant response rating, Canada Thistle [5, 22]: 100; Plant response rating, Canada Thistle [5, 23]: 100; Plant response rating, Canada Thistle [5, 24]: 100; Plant response rating, Waterhemp_RES2 [2, 27]: 50; Plant response rating, Waterhemp_RES1 [3, 27]: 50
COc1nn(C)c(=O)c(-c2c(C)sc3ccc(Cl)cc23)c1O [Compound 100] | 0 | 10 | 35 | 0 | 50 | 65 | 70 | 80 | 85 | 90 | – | – | –
CCC(=O)Oc1c(C)nn(C)c(=O)c1-c1c(C)sc2ccc(Cl)cc12 [Compound 109] | 45 | 50 | – | 25 | 50 | 60 | – | 70 | 90 | – | 30 | 10 | Plant response rating, Poinsettia, Wild [1, 18]: 0; Plant response rating, Poinsettia, Wild ([1]; Preemergence, 16 g ai/ha, scale 0 to 100, 0 no effect, 100 complete control): 10; Plant response rating, Poinsettia, Wild ([1]; Preemergence, scale 0 to 100, 0 no effect, 100 complete control): 25; Plant response rating, Waterhemp_RES1 [3, 27]: 60
CC(=O)Oc1c(Br)nn(C)c(=O)c1-c1c(C)ccc2ccccc12 [Compound 129] | – | – | – | – | – | – | – | – | – | – | – | – | Geranium, Cutleaf plant response rating [4, 19]: 60; Plant response rating, Geranium, Cutleaf [4, 20]: 75; Plant response rating, Geranium, Cutleaf [4, 21]: 75; Plant response rating (scale of 0 to 100), Geranium, Cutleaf ([4]; Preemergence, 31 g ai/ha): 0; Plant response rating (scale of 0 to 100), Geranium, Cutleaf ([4]; Preemergence, 62 g ai/ha): 0; Plant response rating, Geranium, Cutleaf [4, 22]: 70; Plant response rating, Geranium, Cutleaf [4, 23]: 95; Plant response rating, Geranium, Cutleaf [4, 24]: 70; Canada Thistle plant response rating [5, 25]: 100; Plant response rating, Canada Thistle [5, 20]: 100; Plant response rating, Canada Thistle [5, 21]: 100; Plant response rating (scale of 0 to 100), Canada Thistle ([5]; Preemergence): 80; Plant response rating, Canada Thistle [5, 26]: 100; Plant response rating, Canada Thistle [5, 22]: 100; Plant response rating, Canada Thistle [5, 23]: 100; Plant response rating, Canada Thistle [5, 24]: 100
CSCC(=O)Oc1c(C)nn(C)c(=O)c1-c1cccc2ccccc12 [Compound 171] | 30 | 40 | 80 | 25 | 15 | 40 | 60 | 50 | 75 | 90 | – | – | –
